From patent US20190083436A1, “METHODS OF DIAGNOSING CANCER” (AGENCY FOR SCIENCE, TECHNOLOGY AND RESEARCH, priority 2016, published 2019)

Tests used:
DEN-induced liver tumors = experiment: DEN-injected mice fed BCAA-supplemented diets with Fenofibrate or BT2; format: in vivo; conditions: 8 months after DEN injection; LFD+BCAA or HFD+BCAA with 0.05% Fenofibrate or 0.02% BT2
Excerpt: Analysis of mice 8 months after DEN injection, fed either a low fat diet (LFD, 10% kcal from fat) or high fat diet (HFD, 45% kcal from fat) with normal or high (+150%) levels of BCAAs. […] Hazard ratios (with 95% confidence intervals) based on BCAA intake, adjusted for age, sex, race, total kcal, usual dietary intake, diet change, physical activity, intentional weight loss, waist circumference, smoking, education, and prior diagnosis of cancer, diabetes and cardiovascular disease, additionally adjusted for % kcal from other macronutrients. […] Substitution analysis comparing change in risk when replacing BCAAs with carbohydrate or fat, with the same adjustments as HR2 except total kcal and % kcal from nonBCAA protein. Data are presented as hazard ratio (solid line) with 95% confidence interval (shaded area). […] Student's t-test, *P<0.05 vs. LFD, § P<0.05 vs HFD. †P<0.05 vs LFD+BCAA. ‡P<0.05 vs HFD+BCAA. […]
All animal studies were approved by the Institutional Animal Care and Use Committee at A*STAR. […] For rat DEN model, DEN was given to 10 week-old rats via drinking water containing 100 mg/L DEN for up to 4 months, and control rat livers from age-matched rats were analyzed. […] Livers were resected, measured by electronic calipers and snap frozen in liquid nitrogen. […] Body weights were measured weekly and prior to sacrifice lean and fat mass were measured by an EchoMRI Body Composition Analyzer. […]

mTOR = experiment: Immunofluorescence of mTOR/LAMP2 co-localization in Hep3B cells; format: cell-based; conditions: treated 2 hours
Excerpt: Arrows highlight the co-localization of mTOR and lysosomal marker LAMP2. […] Student's t-test, *P<0.05, compared to respective controls.

HCC cell lines = experiment: Real-time cell proliferation (xCELLigence) of liver cancer cell lines treated with compounds; format: cell-based
Procedure: Cell Culture. Cell lines were obtained [Huh7 from Japanese Collection of Research Bioresources; Hep3B, SNU182, SNU387, SNU398, and SNU449 from ATCC; and Morris Hepatoma 3924a from German Cancer Research Center Tumor Collection] and not further verified. Only cell stocks that had been verified mycoplasma-negative within the prior 9 months were used. All cell lines were maintained in RPMI 1640 with 10% FBS and 1% Pen Strep (Gibco) and grown in a 37° C. humidified incubator with 5% CO2. Real-time cell growth measurements were taken on an xCELLigence RTCA SP (Acea) at 15-minute intervals. For compound treatment growth curves, cells were seeded in quadruplicate at 1,250, 2,500 or 5,000 cells per well and normalized 12 hours later (time 0 hours), immediately prior to changing half of the media to add compounds or vehicle. […] For immunoblots, cells were seeded in 10 cm dishes and allowed to grow for at least 24 hours. At approximately 80% confluence the media was changed to include indicated amounts of compound or vehicle (DMSO) and whole cell lysates were harvested 2 hours later. […] Results shown are one of at least three independent experiments.

mTOR pathway = experiment: Immunoblots of mTOR pathway activity after 2 hours of compound treatment; format: cell-based; conditions: HCC cell lines, 2 hours of treatment
Procedure: All cell lines were maintained in RPMI 1640 with 10% FBS and 1% Pen Strep (Gibco) and grown in a 37° C. humidified incubator with 5% CO2. […] For immunoblots, cells were seeded in 10 cm dishes and allowed to grow for at least 24 hours. At approximately 80% confluence the media was changed to include indicated amounts of compound or vehicle (DMSO) and whole cell lysates were harvested 2 hours later. […] For immunoblots, cells were seeded in 10 or 15 cm dishes, and were split or received media change every 3-4 days to maintain a doxycycline concentration of 250 μg/mL. After 10 days, cells were harvested as whole cell lysates, or as purified mitochondrial fractions using an isolation kit (Thermo Fisher). Results shown are one of at least three independent experiments. […] For immunoblots, cells were seeded into 10 cm or 15 cm dishes and harvested 5 days later as whole cell lysates or purified mitochondrial fractions, when the cells were approximately 80% confluent.
Antibodies were obtained from Cell Signaling [Cleaved Caspase 3 (9664), Cox IV (4844), p-Histone H2A.X (9718), S6 (2317), p-S6 (4858), S6K (9202), p-S6K (9234)], Santa Cruz [Bckdha (sc-67200), Bckdhb (sc160974), Gapdh (sc-32233)], Bethyl [p-Bckdha (A304-672A)], Sigma [Tubulin (T5168), Acads (HPA022271)], and Abcam [Acadsb (ab99951), Bckdk (ab125389 and ab151297), Ki67 (ab15580)]. […]

Compound | tumor promoting effects of BCAA-supplemented diets (number of tumors ≥3 mm, size of largest tumor) (DEN-induced liver tumors) | mTOR subcellular localization (co-localization of mTOR and lysosomal marker LAMP2) (mTOR) | cell proliferation (real-time proliferation curves, divisions per day) (HCC cell lines; panel of HCC cell lines, rates over 48-hour period) | mTOR activity (immunoblots) (mTOR pathway) | sensitivity of HCC cell lines to mTOR inhibitors (HCC cell lines; all HCC cell lines examined, proliferation and mTOR pathway immunoblots)
CC(C)OC(=O)C(C)(C)Oc1ccc(C(=O)c2ccc(Cl)cc2)cc1 [Fenofibrate, propan-2-yl 2-[4-(4-chlorobenzoyl)phenoxy]-2-methylpropanoate] | able to reverse the tumor promoting effects | no significant co-localization was observed |  |  | 
O=C(O)c1sc2cc(Cl)ccc2c1Cl [BT2, 3,6-dichlorobenzo[b]thiophene-2-carboxylic acid] | able to reverse the tumor promoting effects | no significant co-localization was observed | potent dose-dependent decrease in cell proliferation | broad loss of mTOR activity | 
CCC(=O)N1CCN(c2ccc(-n3c(=O)ccc4cnc5ccc(-c6cnc7ccccc7c6)cc5c43)cc2C(F)(F)F)CC1 [Torin 1] |  |  |  |  | at least partially sensitive
